Source: patent US12054494B2, “Compound with anticancer activity” (KYOWA KIRIN CO., LTD., priority 2018, dated 2024)

tested on: SU-DHL-4 cells; test: Inhibitory effect on cell viability (Cell Counting Kit-8); format: cell-based; details: Homo sapiens, 72 hours culture with test compound, concentration showing 90% inhibition rate of cell viability
Procedure, shortened: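 IC90 corresponds to 90% loss of viability, measured as CCK-8 absorbance at 450 nm (2-3 h colour development). Compounds in 9 dilutions (0.1% DMSO) were applied for 72 h at 37° C to SU-DHL-4 lymphoma cells seeded at 2000/well in RPMI1640/10% FBS after 18-25 h preculture.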

SMILES	IC90
CCC(=O)N1c2ccccc2[C@H](NCC2CCN(C(=O)N3CC(C(=O)Nc4ccc(N[C@@H]5C[C@H](C)N(C(=O)CC)c6ccccc65)cc4)C3)CC2)C[C@@H]1C (relative stereo) [Compound 10p, 1-(4-((((2S*,4R*)-2-Methyl-1-propionyl-1,2,3,4-tetrahydroquinolin-4-yl)amino)methyl)piperidine-1-carbonyl)-N-(4-(((2S,4R)-2-methyl-1-propionyl-1,2,3,4-tetrahydroquinolin-4-yl)amino)phenyl)azetidine-3-carboxamide]	47.5 nM
CCC(=O)N1c2ccccc2[C@H](Nc2ccc(NC(=O)CCCC(=O)Nc3ccc(N[C@@H]4C[C@H](C)N(C(=O)CC)c5cc(/C=C/CN)ccc54)cc3)cc2)C[C@@H]1C (relative stereo) [Compound 10t, N^1-(4-(((2S*,4R*)-7-((E)-3-Aminoprop-1-en-1-yl)-2-methyl-1-propionyl-1,2,3,4-tetrahydroquinolin-4-yl)amino)phenyl)-N^5-(4-(((2S,4R)-2-methyl-1-propionyl-1,2,3,4-tetrahydroquinolin-4-yl)amino)phenyl)glutaramide]	26.3 nM
CCC(=O)N1c2ccccc2[C@H](Nc2ccc(C(=O)NCCC(=O)Nc3ccc(C4=NCc5nnc(C)n5-c5sc(C)c(C)c54)cc3)cc2)C[C@@H]1C [Compound 14m, 4-(((2S,4R)-2-Methyl-1-propionyl-1,2,3,4-tetrahydroquinolin-4-yl)amino)-N-(3-oxo-3-((4-(2,3,9-trimethyl-6H-thieno[3,2-f][1,2,4]triazolo[4,3-a][1,4]diazepin-4-yl)phenyl)amino)propyl)benzamide]	1.45 nM
CCC(=O)N1c2ccccc2[C@H](Nc2ccc(NC(=O)CCNC(=O)c3ccc(C4=N[C@@H](CC(=O)OC(C)(C)C)c5nnc(C)n5-c5sc(C)c(C)c54)cc3)cc2)C[C@@H]1C (relative stereo) [Compound 13i, tert-Butyl 2-((S)-2,3,9-trimethyl-4-(4-((3-((4-(((2S*,4R*)-2-methyl-1-propionyl-1,2,3,4-tetrahydroquinolin-4-yl)amino)phenyl)amino)-3-oxopropyl)carbamoyl)phenyl)-6H-thieno[3,2-f][1,2,4]triazolo[4,3-a][1,4]diazepin-6-yl)acetate]	3.37 nM
Cc1sc2c(c1C)C(c1ccc(C(=O)NCC(=O)CNC(=O)c3ccc(C4=NCc5nnc(C)n5-c5sc(C)c(C)c54)cc3)cc1)=NCc1nnc(C)n1-2 [Compound 14o, N,N′-(2-Oxopropane-1,3-diyl)bis(4-(2,3,9-trimethyl-6H-thieno[3,2-f][1,2,4]triazolo[4,3-a][1,4]diazepin-4-yl)benzamide)]	30.9 nM
CCC(=O)N1c2ccccc2[C@H](Nc2ccc(C(=O)NCc3cn(-c4ccc(C5=NCc6nnc(C)n6-c6sc(C)c(C)c65)cc4)nn3)cc2)C[C@@H]1C [Compound 14q, 4-(((2S,4R)-2-Methyl-1-propionyl-1,2,3,4-tetrahydroquinolin-4-yl)amino)-N-((1-(4-(2,3,9-trimethyl-6H-thieno[3,2-f][1,2,4]triazolo[4,3-a][1,4]diazepin-4-yl)phenyl)-1H-1,2,3-triazol-4-yl)methyl)benzamide]	0.17 nM
CCC(=O)N1c2ccccc2[C@H](NCCCCCCCCC(=O)Nc2ccc(N[C@@H]3C[C@H](C)N(C(=O)CC)c4ccccc43)cc2)C[C@@H]1C (relative stereo) [Compound 12g, 9-(((2S*,4R*)-2-Methyl-1-propionyl-1,2,3,4-tetrahydroquinolin-4-yl)amino)-N-(4-(((2S,4R)-2-methyl-1-propionyl-1,2,3,4-tetrahydroquinolin-4-yl)amino)phenyl)nonanamide]	31.1 nM
CCC(=O)N1c2ccccc2[C@H](Nc2ccc(-c3cnn(CCNC(=O)c4ccc(Cn5c(C(=O)OCCN(C)C)cc6c5CCCC6=O)cc4)c3)cc2)C[C@@H]1C [Compound 15d, 2-(Dimethylamino)ethyl 1-(4-((2-(4-(4-(((2S,4R)-2-methyl-1-propionyl-1,2,3,4-tetrahydroquinolin-4-yl)amino)phenyl)-1H-pyrazol-1-yl)ethyl)carbamoyl)benzyl)-4-oxo-4,5,6,7-tetrahydro-1H-indole-2-carboxylate]	0.16 nM

Now from value to compound:

IC90	SMILES
2.12 nM	CCC(=O)N1c2ccccc2[C@H](Nc2ccc(NC(=O)CNC(=O)c3ccc(N[C@@H]4C[C@H](C)N(C(=O)CC)c5ccccc54)cc3)cc2)C[C@@H]1C (relative stereo) [Compound 2a, 4-{[(2S*,4R*)-2-Methyl-1-propionyl-1,2,3,4-tetrahydroquinolin-4-yl]amino}-N-{2-[(4-{[(2S*,4R*)-2-methyl-1-propionyl-1,2,3,4-tetrahydroquinolin-4-yl]amino}phenyl)amino]-2-oxoethyl}benzamide]
0.11 nM	CCC(=O)N1c2ccccc2[C@H](Nc2ccc(C(=O)NCc3nnc(-c4ccc(N[C@@H]5C[C@H](C)N(C(=O)CC)c6ccccc65)cc4)o3)cc2)C[C@@H]1C [Compound 3c, 4-{[(2S,4R)-2-Methyl-1-propionyl-1,2,3,4-tetrahydroquinolin-4-yl]amino}-N-{[5-(4-{[(2S,4R)-2-methyl-1-propionyl-1,2,3,4-tetrahydroquinolin-4-yl]amino}phenyl)-1,3,4-oxadiazol-2-yl]methyl}benzamide]
0.11 nM	CCC(=O)N1c2ccccc2[C@H](Nc2ccc(C(=O)NCc3noc(-c4ccc(N[C@@H]5C[C@H](C)N(C(=O)CC)c6ccccc65)cc4)n3)cc2)C[C@@H]1C [Compound 3d, 4-{[(2S,4R)-2-Methyl-1-propionyl-1,2,3,4-tetrahydroquinolin-4-yl]amino}-N-{[5-(4-{[(2S,4R)-2-methyl-1-propionyl-1,2,3,4-tetrahydroquinolin-4-yl]amino}phenyl)-1,2,4-oxadiazol-3-yl]methyl}benzamide]
2.53 nM	CCC(=O)N1c2ccccc2[C@H](Nc2ccc(CNCc3nnc(-c4ccc(N[C@@H]5C[C@H](C)N(C(=O)CC)c6ccccc65)cc4)o3)cc2)C[C@@H]1C [Compound 5g, 1-((2S,4R)-2-Methyl-4-((4-((((5-(4-(((2S,4R)-2-methyl-1-propionyl-1,2,3,4-tetrahydroquinolin-4-yl)amino)phenyl)-1,3,4-oxadiazol-2-yl)methyl)amino)methyl)phenyl)amino)-3,4-dihydroquinolin-1(2H)-yl)propan-1-one]
0.12 nM	CCC(=O)N1c2ccccc2[C@H](Nc2ccc(C(=O)N3CCn4c(-c5ccc(N[C@@H]6C[C@H](C)N(C(=O)CC)c7ccccc76)cc5)cnc4C3)cc2)C[C@@H]1C [Compound 3e, 1-[(2S,4R)-2-Methyl-4-({4-[3-(4-{[(2S,4R)-2-methyl-1-propionyl-1,2,3,4-tetrahydroquinolin-4-yl]amino}phenyl)-5,6,7,8-tetrahydroimidazo[1,2-a]pyrazine-7-carbonyl]phenyl}amino)-3,4-dihydroquinolin-1(2H)-yl]propan-1-one]
0.33 nM	CCC(=O)N1c2ccccc2[C@H](Nc2ccc(C(=O)N3CCn4cc(-c5ccc(N[C@@H]6C[C@H](C)N(C(=O)CC)c7ccccc76)cc5)nc4C3)cc2)C[C@@H]1C [Compound 3f, 1-[(2S,4R)-2-Methyl-4-({4-[2-(4-{[(2S,4R)-2-methyl-1-propionyl-1,2,3,4-tetrahydroquinolin-4-yl]amino}phenyl)-5,6,7,8-tetrahydroimidazo[1,2-a]pyrazine-7-carbonyl]phenyl}amino)-3,4-dihydroquinolin-1(2H)-yl]propan-1-one]
0.04 nM	CCC(=O)N1c2ccccc2[C@H](Nc2ccc(C(=O)NCC(=O)CNC(=O)c3ccc(N[C@@H]4C[C@H](C)N(C(=O)CC)c5ccccc54)cc3)cc2)C[C@@H]1C [Compound 1l, N,N′-(2-Oxopropane-1,3-diyl)bis(4-{[(2S,4R)-2-methyl-1-propionyl-1,2,3,4-tetrahydroquinolin-4-yl]amino}benzamide)]
0.14 nM	CCC(=O)N1c2ccccc2[C@H](Nc2ccc(C(=O)N3CCC(n4cc(-c5ccc(N[C@@H]6C[C@H](C)N(C(=O)CC)c7ccccc76)cc5)cn4)CC3)cc2)C[C@@H]1C [Compound 6o, 1-((2S,4R)-2-Methyl-4-((4-(1-(1-(4-(((2S,4R)-2-methyl-1-propionyl-1,2,3,4-tetrahydroquinolin-4-yl)amino)benzoyl)piperidin-4-yl)-1H-pyrazol-4-yl)phenyl)amino)-3,4-dihydroquinolin-1(2H)-yl)propan-1-one]
0.13 nM	CCC(=O)N1c2ccccc2[C@H](Nc2ccc(NC(=O)Cn3cc(-c4ccc(N[C@@H]5C[C@H](C)N(C(=O)CC)c6ccccc65)cc4)cn3)cc2)C[C@@H]1C (relative stereo) [Compound 6n, N-(4-(((2S*,4R*)-2-Methyl-1-propionyl-1,2,3,4-tetrahydroquinolin-4-yl)amino)phenyl)-2-(4-(4-(((2S,4R)-2-methyl-1-propionyl-1,2,3,4-tetrahydroquinolin-4-yl)amino)phenyl)-1H-pyrazol-1-yl)acetamide]
5.87 nM	CCC(=O)N1c2ccccc2[C@H](Nc2ccc(NC(=O)CC(C)CC(=O)Nc3ccc(N[C@@H]4C[C@H](C)N(C(=O)CC)c5ccccc54)cc3)cc2)C[C@@H]1C (relative stereo) [Compound 4b, 3-Methyl-N^1,N^5-bis(4-{[(2S*,4R*)-2-methyl-1-propionyl-1,2,3,4-tetrahydroquinolin-4-yl]amino}phenyl)pentanediamide]
0.55 nM	CCC(=O)N1c2ccccc2[C@H](Nc2ccc(C(=O)N3CC4CC3CN4C(=O)c3ccc(N[C@@H]4C[C@H](C)N(C(=O)CC)c5ccccc54)cc3)cc2)C[C@@H]1C [Compound 1k, 1,1′-{(2S,2′S,4R,4′R)-{[(2,5-Diazabicyclo[2.2.1]heptane-2,5-dicarbonyl)bis(4,1-phenylene)]bis(azanediyl)}bis[2-methyl-3,4-dihydroquinoline-4,1(2H)-diyl]}bis(propan-1-one)]
1.19 nM	CCC(=O)N1c2ccccc2[C@H](Nc2ccc(SCCNC(=O)c3ccc(N[C@@H]4C[C@H](C)N(C(=O)CC)c5ccccc54)cc3)cc2)C[C@@H]1C [Compound 4f, 4-{[(2S,4R)-2-Methyl-1-propionyl-1,2,3,4-tetrahydroquinolin-4-yl]amino}-N-{2-[(4-{[(2S,4R)-2-methyl-1-propionyl-1,2,3,4-tetrahydroquinolin-4-yl]amino}phenyl)thio]ethyl}benzamide]
